# Results taken from patent EP0352652B1, “Use of imexone as an immunosuppressive agent” (BOEHRINGER MANNHEIM GMBH, priority 1988, dated 1990).
# Legend:
# [1] = test system: Methylcholanthren-induzierte Fibrosarkomzellinie (MethA); assay: Tumour growth inhibition assay (TGI), spontaneous proliferation of MethA cells, [3H]-thymidine incorporation; format: cell-based, CB6F₁-Mäusen
# Method: Die Methylcholanthren-induzierte Fibrosarkomzellinie (MethA) wurde aus der eigenen Tumorzellbank erhalten und intraperitoneal in CB6F₁-Mäusen passagiert.
# 1 x 10⁴ MethA-Zellen werden mit der zu testenden Imexonkonzentration in DMEM-Medium über 48 h inkubiert. 3 h vor Ablauf der Inkubationszeit wird mit [³H]-Thymidin gepulst, geerntet und ausgewertet wie bei Beispiel 2 beschrieben.
# Milzzellen = assay: Concanavalin A (ConA)-induced proliferation of murine splenocytes (LTT), [3H]-thymidine incorporation; format: cell-based, CB6F₁-Mäusen; details: for LTT (Splenozyten, ConA) ^3H-TdR cpm (n=6) x̄: 0,5 µg/ml ConA
# Method: Milzzellen (4 x 10⁵) von CB6F₁-Mäusen werden mit 0,5 µg/ml ConA in Mikrotiterplatten (Nunc GmbH, Wiesbaden, FRG) und verschiedenen Konzentrationen von Imexon in 6-fach Ansätzen für insgesamt 48 h inkubiert. 5 h vor Ablauf der Inkubationszeit werden die Kulturen mit [³H]-Thymidin gepulst und anschließend auf Glasfiberfilterplattchen mittels eines Multisample Harvester (Skatron A.S., Lier, Norwegen) geerntet. Die Filterplättchen werden getrocknet, und die Radioaktivität in einem Packard Szintillationsspektrometer bestimmt.
# humaner Lymphozyten = assay: Phytohaemagglutinin (PHA)-induced proliferation of human lymphocytes (LTT), [3H]-thymidine incorporation; format: cell-based
# Method: 1 ml humanes Vollblut wird mit 500 µg PHA-Lösung (500 µg/ml) und 48 ml DMEM-Mediun verdünnt. Jeweils 200 µl dieses Ansatzes werden mit 20 µl der zu testenden Imexonkonzentration in 6-fach-Ansätzen gemischt und 4 Tage inkubiert. Nach Pulsen mit [³H]-Thymidin wird weitere 24 h inkubiert, geerntet und ausgewertet wie bei Beispiel 2 beschrieben.
# humane B-Lymphozyten = assay: BCGF-dependent proliferation of human B lymphocytes, [3H]-thymidine incorporation; format: cell-based
# Method: Die Anreicherung von peripheren humanen B-Zellen und der BCGF-Proliferationsassay wurden wie folgt durchgeführt (vgl. a. Eur. J. Immun. 16, 350 (1986)): Angereicherte humane B-Lymphozyten werden zweimal gewaschen mit komplettiertem RPMI 1640 Medium (Streptomycin/Penicillin, L-Glutamin, 2-Mercaptoethanol, FCS) und auf 3 x 10⁵ Zellen/ml eingestellt. […] dieser Suspension werden jeweils pro Well in Mikrotiterplatten pipettiert. Als Pseudoantigen werden […] einer Lösung von HFCµS-IgG (300 µg/ml) zugegeben und als Wachstumsfaktor 20 µl BCGF (Cellular Products Incorporated) hinzugefügt. Dazu werden 20 µl der zu testenden Verbindung in 10facher Konzentration pipettiert. Die Kulturen werden insgesamt 140 h bei 37°, 5 % CO₂ und 95 % relativen Luftfeuchtigkeit inkubiert. 16 h vor Ablauf der Inkubationszeit wird jede Kultur mit 1 µ Ci einer [³H]-Thymidin-Lösung gepulst. Am Ende des Versuches werden die Zellen mit einem Harvester geerntet und die eingebaute Radioaktivität in einem Flüssigszintillationszähler bestimmt.
# Mäusestamm MRL 1pr/1pr = assay: Autoimmune disease model in MRL mice (lymphadenomas, antinuclear autoantibodies), prophylactic and therapeutic treatment; format: in vivo, Maus
# From the text: B. Synthese von antinukleâren Autoantikörpern. Zur Untersuchung des prophylaktischen Effektes von Imexon auf die Entwicklung dieser Symptome wurden 11 Wochen alte MRL Mäuse einmal täglich intraperitoneal mit den angegebenen Dosierungen Imexon und Cyclophosphamid behandelt. Dokumentiert wurden die Zahl der Lymphadenome und die Konzentration antinukleärer Antikörper. Bei der Untersuchung zur therapeutischen Potenz von Imexon wurden MRL Mäuse, […] jedes Tier mindestens ein Lymphadenom […] an Imexon und Cyclophosphamid behandelt. Die Meßparameter waren wiederum Zahl der Lymphadenome sowie Autoantikö[…].
# Walker-Sarkoma 256 = details: rats, after application of Imexon; cited from earlier work
# [2] = test system: Leukozyten; Antikörper bildende Milzzellen; details: after application of Imexon; cited from earlier work
# [3] = relative to suppression of BCGF-induced B-cell proliferation, not or only at these concentrations
# [4] = Homo sapiens, Lymphocyte, 140 h, read-out: BCGF (humane B-Lym-phozyten) %Hemmung
# [5] = prophylactic, 11-week-old MRL mice, once daily intraperitoneal
# [6] = therapeutic, lymphoma-bearing MRL mice (ca. 14 weeks old), once daily
smiles,measurement,setting,value
"N=C1NC(=O)N2CC12 (stereo not drawn) [Imexon, 4-Imino-1,3-diazabicyclo-(3.1.0)-hexan-2-on]",TGI (MethA) ^3H-TdR cpm (n=6) x̄,"[1]; Imexon 0.1 µg/ml, 48 h",31722 cpm
same,TGI (MethA) ^3H-TdR cpm (n=6) x̄,"[1]; Imexon 0.3 µg/ml, 48 h",37593 cpm
same,TGI (MethA) ^3H-TdR cpm (n=6) x̄,"[1]; Imexon 1 µg/ml, 48 h",35475 cpm
same,TGI (MethA) ^3H-TdR cpm (n=6) x̄,"[1]; Imexon 3 µg/ml, 48 h",35473 cpm
same,TGI (MethA) ^3H-TdR cpm (n=6) x̄,"[1]; Imexon 10 µg/ml, 48 h",21913 cpm
same,TGI (MethA) ^3H-TdR cpm (n=6) x̄,"[1]; Imexon 30 µg/ml, 48 h",911 cpm
same,TGI (MethA) ^3H-TdR cpm (n=6) x̄,"[1]; Imexon 100 µg/ml, 48 h",534 cpm
same,inhibition at 0.1 µg/mL,"[1]; Meth-A, 48 h, Imexon 0.1 µg/ml, read-out: TGI (MethA) %Hemmung",7%
same,inhibition at 0.3 µg/mL,"[1]; Meth-A, 48 h, Imexon 0.3 µg/ml, read-out: TGI (MethA) %Hemmung",-11%
same,inhibition at 1 µg/mL,"[1]; Meth-A, 48 h, Imexon 1 µg/ml, read-out: TGI (MethA) %Hemmung",-4%
same,inhibition at 3 µg/mL,"[1]; Meth-A, 48 h, Imexon 3 µg/ml, read-out: TGI (MethA) %Hemmung",-4%
same,inhibition at 10 µg/mL,"[1]; Meth-A, 48 h, Imexon 10 µg/ml, ** p < 0.001, read-out: TGI (MethA) %Hemmung",35%
same,inhibition at 30 µg/mL,"[1]; Meth-A, 48 h, Imexon 30 µg/ml, ** p < 0.001, read-out: TGI (MethA) %Hemmung",97%
same,inhibition at 100 µg/mL,"[1]; Meth-A, 48 h, Imexon 100 µg/ml, ** p < 0.001, read-out: TGI (MethA) %Hemmung",98%
same,minimal effective concentration,"[1]; Meth-A, 48 h, spontaneous proliferation, read-out: Konzentration, ab der die Spontanproliferation von MethA-Sarkomzellen signifikant unterdrückt ist",> 10 µg/mL
same,"höhere Konzentrationen, bei denen die spontane Proliferation von MethA beeinflußt wird",[1]; [3],10-30 fach
same,"LTT (Splenozyten, ConA) ^3H-TdR cpm (n=6) x̄","Milzzellen; Imexon 0.1 µg/ml, 48 h",109717 cpm
same,"LTT (Splenozyten, ConA) ^3H-TdR cpm (n=6) x̄","Milzzellen; Imexon 0.3 µg/ml, 48 h",134032 cpm
same,"LTT (Splenozyten, ConA) ^3H-TdR cpm (n=6) x̄","Milzzellen; Imexon 1 µg/ml, 48 h",119120 cpm
same,"LTT (Splenozyten, ConA) ^3H-TdR cpm (n=6) x̄","Milzzellen; Imexon 3 µg/ml, 48 h",118487 cpm
same,"LTT (Splenozyten, ConA) ^3H-TdR cpm (n=6) x̄","Milzzellen; Imexon 10 µg/ml, 48 h",24895 cpm
same,"LTT (Splenozyten, ConA) ^3H-TdR cpm (n=6) x̄","Milzzellen; Imexon 30 µg/ml, 48 h",2509 cpm
same,"LTT (Splenozyten, ConA) ^3H-TdR cpm (n=6) x̄","Milzzellen; Imexon 100 µg/ml, 48 h",903 cpm
same,inhibition at 0.1 µg/mL,"Milzzellen; Splenocyte, 48 h, Imexon 0.1 µg/ml, read-out: LTT (Splenozyten, ConA) %Hemmung",0%
same,inhibition at 0.3 µg/mL,"Milzzellen; Splenocyte, 48 h, Imexon 0.3 µg/ml, read-out: LTT (Splenozyten, ConA) %Hemmung",-22%
same,inhibition at 1 µg/mL,"Milzzellen; Splenocyte, 48 h, Imexon 1 µg/ml, read-out: LTT (Splenozyten, ConA) %Hemmung",-8%
same,inhibition at 3 µg/mL,"Milzzellen; Splenocyte, 48 h, Imexon 3 µg/ml, read-out: LTT (Splenozyten, ConA) %Hemmung",-8%
same,inhibition at 10 µg/mL,"Milzzellen; Splenocyte, 48 h, Imexon 10 µg/ml, ** p < 0.001, read-out: LTT (Splenozyten, ConA) %Hemmung",77%
same,inhibition at 30 µg/mL,"Milzzellen; Splenocyte, 48 h, Imexon 30 µg/ml, ** p < 0.001, read-out: LTT (Splenozyten, ConA) %Hemmung",98%
same,inhibition at 100 µg/mL,"Milzzellen; Splenocyte, 48 h, Imexon 100 µg/ml, ** p < 0.001, read-out: LTT (Splenozyten, ConA) %Hemmung",99%
same,minimal effective concentration,"Milzzellen; Splenocyte, 48 h, induced by ConA, read-out: Konzentrationen, bei denen die Lymphozytenproliferation signifikant gehemmt wird",> 10 µg/mL
same,"höhere Konzentrationen, bei denen die ConA-induzierte Lymphozytenproliferation beeinflußt wird",Milzzellen; [3],10-30 fach
same,inhibition at 0.1 µg/mL,"humaner Lymphozyten; Homo sapiens, Lymphocyte, Imexon 0.1 µg/ml, read-out: LTT (Splenozyten, PHA) %Hemmung",5%
same,inhibition at 0.3 µg/mL,"humaner Lymphozyten; Homo sapiens, Lymphocyte, Imexon 0.3 µg/ml, read-out: LTT (Splenozyten, PHA) %Hemmung",-3%
same,inhibition at 1 µg/mL,"humaner Lymphozyten; Homo sapiens, Lymphocyte, Imexon 1 µg/ml, read-out: LTT (Splenozyten, PHA) %Hemmung",-11%
same,inhibition at 3 µg/mL,"humaner Lymphozyten; Homo sapiens, Lymphocyte, Imexon 3 µg/ml, read-out: LTT (Splenozyten, PHA) %Hemmung",19%
same,inhibition at 10 µg/mL,"humaner Lymphozyten; Homo sapiens, Lymphocyte, Imexon 10 µg/ml, ** p < 0.001, read-out: LTT (Splenozyten, PHA) %Hemmung",89%
same,inhibition at 30 µg/mL,"humaner Lymphozyten; Homo sapiens, Lymphocyte, Imexon 30 µg/ml, ** p < 0.001, read-out: LTT (Splenozyten, PHA) %Hemmung",99%
same,inhibition at 100 µg/mL,"humaner Lymphozyten; Homo sapiens, Lymphocyte, Imexon 100 µg/ml, ** p < 0.001, read-out: LTT (Splenozyten, PHA) %Hemmung",99%
same,minimal effective concentration,"humaner Lymphozyten; Homo sapiens, Lymphocyte, induced by PHA, read-out: Konzentrationen, bei denen die Lymphozytenproliferation signifikant gehemmt wird",> 10 µg/mL
same,"LTT (Splenozyten, PHA) ^3H-TdR cpm (n=6) x̄",humaner Lymphozyten; Imexon 0.1 µg/ml,41849 cpm
same,"LTT (Splenozyten, PHA) ^3H-TdR cpm (n=6) x̄",humaner Lymphozyten; Imexon 0.3 µg/ml,45542 cpm
same,"LTT (Splenozyten, PHA) ^3H-TdR cpm (n=6) x̄",humaner Lymphozyten; Imexon 1 µg/ml,49348 cpm
same,"LTT (Splenozyten, PHA) ^3H-TdR cpm (n=6) x̄",humaner Lymphozyten; Imexon 3 µg/ml,35850 cpm
same,"LTT (Splenozyten, PHA) ^3H-TdR cpm (n=6) x̄",humaner Lymphozyten; Imexon 10 µg/ml,4724 cpm
same,"LTT (Splenozyten, PHA) ^3H-TdR cpm (n=6) x̄",humaner Lymphozyten; Imexon 30 µg/ml,573 cpm
same,"LTT (Splenozyten, PHA) ^3H-TdR cpm (n=6) x̄",humaner Lymphozyten; Imexon 100 µg/ml,585 cpm
same,"höhere Konzentrationen, bei denen die PHA-induzierte Lymphozytenproliferation beeinflußt wird",humaner Lymphozyten; [3],10-30 fach
same,Proliferation von B-Lymphozyten,humane B-Lymphozyten,dosisabhängig hemmt
same,inhibition at 0.1 µg/mL,humane B-Lymphozyten; [4],13%
same,inhibition at 0.3 µg/mL,humane B-Lymphozyten; [4],24%
same,inhibition at 1 µg/mL,humane B-Lymphozyten; [4],62%
same,inhibition at 3 µg/mL,humane B-Lymphozyten; [4],85%
same,inhibition at 10 µg/mL,humane B-Lymphozyten; [4],90%
same,inhibition at 30 µg/mL,humane B-Lymphozyten; [4],89%
same,inhibition at 100 µg/mL,humane B-Lymphozyten; [4],90%
same,minimal effective concentration,"humane B-Lymphozyten; Homo sapiens, Lymphocyte, 140 h, read-out: Konzentration, bei der die BCGF-induzierte B-Zellproliferation signifikant und spezifisch supprimiert wird",1 µg/mL
same,BCGF (humane B-Lym-phozyten) ^3H-TdR cpm (n=6) x̄,"humane B-Lymphozyten; Imexon 0.1 µg/ml, 140 h",4847 cpm
same,BCGF (humane B-Lym-phozyten) ^3H-TdR cpm (n=6) x̄,"humane B-Lymphozyten; Imexon 0.3 µg/ml, 140 h",4201 cpm
same,BCGF (humane B-Lym-phozyten) ^3H-TdR cpm (n=6) x̄,"humane B-Lymphozyten; Imexon 1 µg/ml, 140 h",2096 cpm
same,BCGF (humane B-Lym-phozyten) ^3H-TdR cpm (n=6) x̄,"humane B-Lymphozyten; Imexon 3 µg/ml, 140 h",831 cpm
same,BCGF (humane B-Lym-phozyten) ^3H-TdR cpm (n=6) x̄,"humane B-Lymphozyten; Imexon 10 µg/ml, 140 h",574 cpm
same,BCGF (humane B-Lym-phozyten) ^3H-TdR cpm (n=6) x̄,"humane B-Lymphozyten; Imexon 30 µg/ml, 140 h",617 cpm
same,BCGF (humane B-Lym-phozyten) ^3H-TdR cpm (n=6) x̄,"humane B-Lymphozyten; Imexon 100 µg/ml, 140 h",562 cpm
same,Verträglichkeit,"Mäusestamm MRL 1pr/1pr; MRL mice, once daily intraperitoneal",sehr guter Verträglichkeit
same,Konzentration DNA spezifischer Antikörper,Mäusestamm MRL 1pr/1pr; [5],erniedrigt
same,Zahl spontan entstehender Lymphadenome,Mäusestamm MRL 1pr/1pr; [5],erniedrigt
same,Titer der Autoantikörper,Mäusestamm MRL 1pr/1pr; [6],nimmt dosisabhängig ab
same,Zahl der Lymphadenome,Mäusestamm MRL 1pr/1pr; [6],nimmt dosisabhängig ab
same,Tumorwachstum von Walker-Sarkoma 256,Walker-Sarkoma 256,Hemmung des Tumorwachstums
same,Leukozyten,[2],Anstieg der Leukozyten
same,Zahl der Antikörper bildenden Milzzellen,[2],Anstieg der Zahl der Antikörper bildenden Milzzellen
